Results reported in patent US12084523B2, “Ubiquitin high affinity cyclic peptides and methods of use thereof” (TECHNION RESEARCH & DEVELOPMENT FOUNDATION LIMITED, priority 2018, dated 2024).
Where two headings read alike, the source gives them in different places. No end group written: not given here.

Assays:
[1] = biological target: T1, K48-Ub2 (Homo sapiens, UniProt P0CG47); assay: SPR binding of cyclic peptides to K48-linked di-ubiquitin
T1 construct: solid phase peptide synthesis of Ub monomers (modified as required); made in house; host or cells: total chemical synthesis (SPPS, isopeptide ligation, desulfurization)
Description: The interactions between cyclic peptides: U2i, U2ii, U4i, U4ix and Ub1, ^K48Ub2 and ^K48Ub4, were determined using BIACORE T100 instrument (GE healthcare) equipped with a biotin CAPture kit Series S chip. The buffer in all experiments contained 50 mM HEPES, pH 7.3, 150 mM NaCl, 0.05% Tween20, 2 mM DTT with 0.2% DMSO. Biotinylated Ub1, ^K48Ub2 and ^K48Ub4 were loaded to approximately equal molar amounts on the SPR chip, and various concentrations of cyclic peptides were flowed over at 100 μL/sec for 120 sec, before initiation of dissociation by flowing buffer over at 100 μL/sec for further 700 sec. Traces were fit to the simplest, two-state model for binding. Association was fit to a single exponential assuming pseudo-first order conditions, whereas the dissociation trace was fit to single exponential plus a drift term.
Each peptide was flowed over Ub1, ^K48Ub2 and ^K48Ub2 immobilized on SPR chips.

[2] = biological target: T2, ^K48Ub4 (Homo sapiens, UniProt P0CG47); assay: SPR binding of cyclic peptides to K48-linked tetra-ubiquitin
T2 construct: solid phase peptide synthesis of Ub monomers (modified as required); made in house
Description: Surface Plasmon Resonance (SPR)
The interactions between cyclic peptides: U2i, U2ii, U4i, U4ix and Ub1, ^K48Ub2 and ^K48Ub4, were determined using BIACORE T100 instrument (GE healthcare) equipped with a biotin CAPture kit Series S chip. The buffer in all experiments contained 50 mM HEPES, pH 7.3, 150 mM NaCl, 0.05% Tween20, 2 mM DTT with 0.2% DMSO. Biotinylated Ub1, ^K48Ub2 and ^K48Ub4 were loaded to approximately equal molar amounts on the SPR chip, and various concentrations of cyclic peptides were flowed over at […] for 120 sec, before initiation of dissociation by flowing buffer over at […] for further 700 sec. Traces were fit to the simplest, two-state model for binding. Association was fit to a single exponential assuming pseudo-first order conditions, whereas the dissociation trace was fit to single exponential plus a drift term. Finally, due to the poor quality of the traces for U4ix binding ^K48Ub2, the amplitude of the association kinetic trace at different concentrations of peptide was fit to estimate the lower bound for KD.
Each peptide was flowed over Ub1, ^K48Ub2 and […] immobilized on SPR chips. There was no detectable binding to Ub1 for any of the peptides, as expected, as Ub1 binding was explicitly selected against during the RaPID protocol. […] However, Ub2i and Ub2ii also strongly bound ^K48Ub4, with a low apparent KD and an increased SPR response (FIG. 1E). This was consistent with a higher stoichiometry of binding to the tetramer, which could be explained by additional binding sites in ^K48Ub4. Indeed, the ^K48Ub2 structure can be superimposed twice on the ^K48Ub4 crystal structure (FIG. 10). […] However, similar to Ub2i and Ub2ii, Ub4i also bound ^K48Ub2. This was perhaps unsurprising, given the high sequence identity between Ub4i and Ub2i.

[3] = system: USP2; assay: In vitro deubiquitination assay, USP2 with K48-linked di-Ub; assay type: biochemical; conditions: di-Ub as the substrate
Description: (§1) In Vitro Deubiquitination Assay
(§2) In vitro deubiquitination reactions were performed in a Tris buffer (50 mM TRIS, 1 mM TCEP, pH 7.7), containing 2 μM ^K48Ub2/4, then the specific DUB (50 mM Tris, 0.5 mM EDTA, 1 mM TCEP and 0.5 mg/ml ovalbumin, pH 7.5) was added. The reaction mixtures were incubated at 37° C. and at the indicated time points the reactions were stopped by taking aliquots and mixed them with 3× sample buffer and boiling. The same amounts were loaded on 14% SDS-PAGE, electro-blotted to nitrocellulose membrane and probed with an anti-Ub antibody. Bands were quantified with Image Quant LAS 4000 (GE Healthcare).
(§3) The inventors further chose to examine the effect of these cyclic peptides on two DUBs: OTUB1, a K48-linkage chain specific DUB, and USP2, which cleaves most Ub chains without specificity, using K48-linked di- and tetra-Ub chains as substrates.

[4] = system: USP2; assay: In vitro deubiquitination assay, USP2 with K48-linked tetra-Ub; assay type: biochemical; conditions: tetra-Ub chain, after removal of the distal Ub (tri-Ub)
Description: as §1, §2, §3

[5] = biological target: T1, K48-Ub2; assay: Deep mutational scanning of J08_mClBz (relative enrichment, MiSeq); assay type: binding; conditions: single mutation of J08_mClBz
Excerpt: FIG. 36 is a bar graph showing relative enrichment (log2 E) versus single mutations based on deep scanning (Step 2b in FIG. 34B). E=Positive fraction %/Input fraction % according MiSeq sequencing results. Bars of positive values and negative values indicate potentially favorable and unfavorable mutations, respectively.
Mutation of Leu6 seemed highly flexible which allowed its replacement by either nonpolar or polar residues. […] Based on this information, the inventors prepared nine peptides containing F9Y mutations.

[6] = system: 26S proteasome; assay: In vitro proteasome degradation assay of HA-α-globin-K48-linked tetra-Ub; assay type: biochemical; conditions: 5.3 μM peptide
[7] = biological target: T3, ^K63Ub2 (Homo sapiens, UniProt P0CG47, K63R); assay: NMR titration with K63-linked di-Ub; assay type: binding; conditions: up to 2:1 peptide:Ub2
T3 construct: Recombinant Ub monomers carrying chain-terminating mutations; made in house
Description: (§4) All NMR studies were performed on Bruker Avance III 600 MHz spectrometer equipped with TCI cryoprobe. The sample temperature was set to 23° C. for Ub2ii binding studies or 25° C. for Ub4ix studies, unless indicated otherwise. The protein (monomeric Ub or Ub chains) samples were prepared in 20 mM sodium phosphate buffer (pH 6.8) containing 5-10% D20 and 0.02% (w/v) NaN3. The Ub2ii peptide was dissolved in deuterated DMSO (up to 20 mM concentration) and titrated in μL amounts into 50 μM ^15N-Ub^WT or K63-linked Ub2 (^15N-enriched in the distal domain) to two molar equivalents. Ub2ii was titrated into 100 μM solutions of proximally- or distally-^15N-enriched ^K48Ub2 to 1:1 or 1:1.3 molar ratio, respectively, as well as into 200 μM ^K48Ub2 with the ^13C/^15N-enriched proximal or distal Ub unit. Ub4ix titration into K48-linked Ub2, Ub3, and Ub4 was performed in a similar manner, with the starting Ub chain concentration of 200 μM; the chain/peptide molar ratio at the endpoint varied from 1:1 (Ub2) to 1:1.5 or 1:2 for Ub3 and Ub4. Several of these titrations were performed twice and at differing protein concentrations, to verify the reproducibility of the observed spectral changes. Separately, a similar amount of DMSO was added to ^15N-labeled Ub to verify that the presence of DMSO in the peptide-containing stock solution had negligible effect on Ub spectra. […]

[8] = biological target: T4, monomeric Ub (Homo sapiens, UniProt P0CG47); assay: NMR titration with monomeric Ub; assay type: binding; conditions: compared with ^K48Ub2
T4 construct: made in house
Description: as §4

[9] = system: K48-linked Ub elongation on Ring1B; assay: In vitro K48-linked Ub elongation on Ring1B (western blot); assay type: biochemical
[10] = SPR, target ^K48Ub2, read-out: KD
[11] = range stated in the description, 'as exemplified', read-out: dimeric Ub binding affinity KD
[12] = SPR, target ^K48Ub4, read-out: KD
[13] = range stated in the description, 'as exemplified', read-out: tetrameric Ub binding affinity KD

koff ([1]; SPR, target ^K48Ub2)	kon ([1]; SPR, target ^K48Ub2)	Kd [1, 10]	Kd [1, 11]	koff ([2]; SPR, target ^K48Ub4)	kon ([2]; SPR, target ^K48Ub4)	Kd [2, 12]	Kd [2, 13]	Compound	inhibition of USP2 [3]	inhibition of proteasomal degradation of α-globin-K48-linked tetra-Ub [6]	also measured
0.024 s⁻¹	262000 M⁻¹ s⁻¹	91 nM	85 to 115 nM	0.011 s⁻¹	407000 M⁻¹ s⁻¹	26 nM	20 to 35 nM	CC(C)C[C@@H]1NC(=O)[C@H](CC(=O)O)NC(=O)[C@H](CC(=O)O)NC(=O)[C@H](Cc2ccccc2)NC(=O)[C@H](Cc2c[nH]c3ccccc23)NC(=O)CNC(=O)[C@@H](Cc2c[nH]c3ccccc23)NC(=O)CSC[C@@H](C(=O)NCC(N)=O)NC(=O)[C@H](Cc2ccc(O)cc2)NC(=O)[C@H](C)NC(=O)[C@H](C(C)C)NC(=O)[C@H](Cc2ccccc2)NC(=O)[C@H](CC(C)C)NC(=O)[C@H](Cc2ccc(O)cc2)NC1=O [Ub4i]	~40%		Kd ([1]; text and figure legend, K48-Ub2, read-out: KD / binding affinity): 90 nM; inhibition of USP2 [4]: strong inhibition
								*GWFDDLYLYVAYC [J08_mClBz_F9Y]			fold improvement of binding affinity ([1]; from J08_mClBz): 17 fold; relative enrichment ratio [5]: > 5
								M*GWFDDLYLFVAY-CG [J08_mClBz]			fold improvement of binding affinity ([1]; compared with U4i (chloroacetyl-cyclized peptide of same sequence)): 9 fold
								linear Ub4ix: uncyclized/linear form of Ub4ix (WLYLDDSGDWWICG; not fully specified (residue 1))		no inhibition	
0.016 s⁻¹	489000 M⁻¹ s⁻¹	33 ± 8 nM	30 to 50 nM	0.012 s⁻¹	877000 M⁻¹ s⁻¹	14 nM	10 to 20 nM	CC(C)C[C@@H]1NC(=O)[C@H](Cc2ccc(O)cc2)NC(=O)[C@H](Cc2ccc(O)cc2)NC(=O)[C@H](Cc2ccc(O)cc2)NC(=O)[C@H](CCC(=O)O)NC(=O)[C@H](CCCNC(=N)N)NC(=O)[C@H](CC(=O)O)NC(=O)[C@H](Cc2ccc(O)cc2)NC(=O)[C@H](Cc2c[nH]c3ccccc23)NC(=O)[C@@H](Cc2c[nH]c3ccccc23)NC(=O)CSC[C@@H](C(=O)NCC(N)=O)NC(=O)CNC(=O)[C@H](Cc2ccc(O)cc2)NC(=O)CNC1=O [Ub2ii]	~40%		binding to K63-linked di-Ub (NMR) [7]: non-specific and much weaker; binding to monomeric Ub (NMR) [8]: much weaker binding
								*FQLWOHAIALCG [Ub4_e]		clear inhibition	inhibition of K48-linked Ub elongation on Ring1B [9]: inhibit
0.024 s⁻¹	593000 M⁻¹ s⁻¹	40 ± 12 nM	20 to 40 nM	0.011 s⁻¹	779000 M⁻¹ s⁻¹	14 nM	15 to 25 nM	CC(C)C[C@@H]1NC(=O)[C@H](CC(N)=O)NC(=O)[C@H](CC(=O)O)NC(=O)[C@H](Cc2ccccc2)NC(=O)[C@H](Cc2c[nH]c3ccccc23)NC(=O)CNC(=O)[C@@H](Cc2c[nH]c3ccccc23)NC(=O)CSC[C@@H](C(=O)NCC(N)=O)NC(=O)[C@H](Cc2c[nH]cn2)NC(=O)[C@H]([C@@H](C)O)NC(=O)[C@H](C(C)C)NC(=O)[C@H](Cc2ccc(O)cc2)NC(=O)[C@H](Cc2c[nH]c3ccccc23)NC(=O)[C@H](Cc2ccc(O)cc2)NC1=O [Ub2i]	~40%		
								*FQYWOYATGVCG [Ub4_a]		clear inhibition	inhibition of K48-linked Ub elongation on Ring1B [9]: inhibit
